Converted amounts (≈) assume the structure as drawn. Read-outs that look alike come from different tables or passages of the source. Each block holds one compound with its values, some of them ahead of it.
Key:
[1] = tested on: H. pylori; experiment: MIC testing by broth dilution, H. pylori; format: cell-based, Helicobacter pylori
Experimental: (§1) A standard broth dilution protocol was used in 96 well microplates containing a standard dilution of the microorganism to be tested in 100 microliters of the appropriate medium. Appropriate medium: E. coli, LB medium; Staphylococcus strains, Trypticase Soy; and for H. pylori and C. jejuni, Brain Heart Infusion. The compounds to be tested were set at 32 μg/ml in 200 microliters in well one and then serially diluted to provide a range from 32 to 0.06. The wells were scored visually at 24 h. The well where there was no growth was recorded as the MIC. Clostridium difficile was tested by agar diffusion and disk diffusion (Kirby Bower) methods under anaerobic conditions on Wilkins Chalgrin agar. In these assays, zone of inhibited growth was measured and compared by relative ratio to the zone recorded for NTZ.
(§2) Representative compounds of the invention were tested in a series of assays against a series of organisms as described above. […] The organisms tested include, C. difficile, H. pylori, C. jejuni, MRSA, S. epidermidis, and E. coli. S. epidermidis and E. coli were tested in the plank and biofilm assay. A disk diffusion assay was also used for C. difficile. Direct PFOR enzyme assays were also performed. All analogues and derivatives were not tested on every organism in every type of assay (the “-” in each table means that it was not tested).

[2] = tested on: C. jejuni; experiment: MIC testing by broth dilution, C. jejuni; format: cell-based, Campylobacter jejuni
Experimental: as §1, §2

[3] = tested on: MRSA; experiment: MIC testing by broth dilution, MRSA; format: cell-based, Staphylococcus aureus
Experimental: as §1, §2

[4] = tested on: S. epidermidis; experiment: MIC testing by broth dilution, S. epidermidis plank; format: cell-based, Staphylococcus epidermidis
Experimental: as §1, §2

[5] = tested on: E. coli; experiment: MIC testing by broth dilution, E. coli plank; format: cell-based, Escherichia coli
Experimental: as §1, §2

[6] = broth dilution, Brain Heart Infusion, 24 h, read-out: MIC (μM) H. pylori
[7] = broth dilution, Brain Heart Infusion, 24 h, read-out: MIC (μM) C. jejuni
[8] = broth dilution, Trypticase Soy, 24 h, read-out: MIC (μM) MRSA
[9] = broth dilution, Trypticase Soy, 24 h, read-out: MIC (μM) S. epidermidis Plank
[10] = broth dilution, LB medium, 24 h, read-out: MIC (μM) E. coli Plank
[11] = Furan analogues table, read-out: MIC H. pylori
[12] = Furan analogues table, read-out: MIC C. jejuni
[13] = Furan analogues table, read-out: MIC MRSA
[14] = planktonic, Furan analogues table, read-out: MIC S. epidermidis Plank
[15] = planktonic, Furan analogues table, read-out: MIC E. coli Plank

SMILES: O=C(Cc1ccccc1)Nc1ncc([N+](=O)[O-])s1 [VPC16a1013]
- MIC [1, 6]: 21.6 µM (≈ 5.69 µg/mL)
- MIC [2, 7]: 1.8 µM (≈ 0.474 µg/mL)
- MIC [3, 8]: 121.5 µM (≈ 32 µg/mL)
- MIC [4, 9]: 22.8 µM (≈ 6 µg/mL)
- MIC [5, 10]: 121.5 µM (≈ 32 µg/mL)

SMILES: Cn1cc(C(=O)Nc2ncc([N+](=O)[O-])s2)c2ccccc21 [VPC16a1014]
- MIC [1, 6]: 1.2 µM (≈ 0.363 µg/mL)
- MIC [2, 7]: 19.9 µM (≈ 6.02 µg/mL)
- MIC [3, 8]: 105.9 µM (≈ 32 µg/mL)
- MIC [4, 9]: 5.0 µM (≈ 1.51 µg/mL)
- MIC [5, 10]: 105.9 µM (≈ 32 µg/mL)

SMILES: O=C(Nc1ncc([N+](=O)[O-])s1)c1ccc(F)cc1F [VPC16b1009]
- MIC [1, 6]: 0.4 µM (≈ 0.114 µg/mL)
- MIC [2, 7]: 7.0 µM (≈ 2 µg/mL)
- MIC [3, 8]: 28.0 µM (≈ 7.99 µg/mL)
- MIC [4, 9]: 42.1 µM (≈ 12 µg/mL)
- MIC [5, 10]: 112.2 µM (≈ 32 µg/mL)

SMILES: O=C(Nc1ncc([N+](=O)[O-])s1)c1c(F)cccc1F [VPC16b1010]
- MIC [1, 6]: 0.7 µM (≈ 0.2 µg/mL)
- MIC [2, 7]: 14.0 µM (≈ 3.99 µg/mL)
- MIC [3, 8]: 28.0 µM (≈ 7.99 µg/mL)
- MIC [4, 9]: 28.0 µM (≈ 7.99 µg/mL)
- MIC [5, 10]: 112.2 µM (≈ 32 µg/mL)

SMILES: O=C(Nc1ncc([N+](=O)[O-])s1)c1cc(F)c(F)cc1F [VPC16b1012]
- MIC [1, 6]: 0.8 µM (≈ 0.243 µg/mL)
- MIC [2, 7]: 9.9 µM (≈ 3 µg/mL)
- MIC [3, 8]: 33.0 µM (≈ 10 µg/mL)
- MIC [4, 9]: 33.0 µM (≈ 10 µg/mL)
- MIC [5, 10]: 105.5 µM (≈ 32 µg/mL)

SMILES: O=C(Nc1ncc([N+](=O)[O-])s1)c1cc(F)c(F)c(F)c1 [VPC16b1014]
- MIC [1, 6]: 1.2 µM (≈ 0.364 µg/mL)
- MIC [2, 7]: 4.9 µM (≈ 1.49 µg/mL)
- MIC [3, 8]: 29.7 µM (≈ 9.01 µg/mL)
- MIC [4, 9]: 66.0 µM (≈ 20 µg/mL)
- MIC [5, 10]: 105.5 µM (≈ 32 µg/mL)

SMILES: O=C(Nc1ncc([N+](=O)[O-])s1)c1ccc(F)c(F)c1 [VPC16b1019]
- MIC [1, 6]: 1.8 µM (≈ 0.513 µg/mL)
- MIC [2, 7]: 5.3 µM (≈ 1.51 µg/mL)
- MIC [3, 8]: 10.5 µM (≈ 2.99 µg/mL)
- MIC [4, 9]: 28.0 µM (≈ 7.99 µg/mL)
- MIC [5, 10]: 84.1 µM (≈ 24 µg/mL)

SMILES: O=C(Nc1ncc([N+](=O)[O-])s1)C1CC1c1ccccc1 (stereo not drawn) [VPC16b1032]
- MIC [1, 6]: 1.7 µM (≈ 0.492 µg/mL)
- MIC [2, 7]: 26.6 µM (≈ 7.7 µg/mL)
- MIC [3, 8]: 13.8 µM (≈ 3.99 µg/mL)
- MIC [4, 9]: 13.8 µM (≈ 3.99 µg/mL)
- MIC [5, 10]: 110.6 µM (≈ 32 µg/mL)

More lines, now with the values ahead:

- MIC ([1]; Thiophene analogues table, read-out: MIC H. pylori): 5.2 µM (≈ 1.51 µg/mL)
- MIC ([2]; Thiophene analogues table, read-out: MIC C. jejuni): 20.7 µM (≈ 6 µg/mL)
- MIC ([3]; Thiophene analogues table, read-out: MIC MRSA): 20.7 µM (≈ 6 µg/mL)
- MIC ([4]; planktonic, Thiophene analogues table, read-out: MIC S. epidermidis Plank): 55.2 µM (≈ 16 µg/mL)
- MIC ([5]; planktonic, Thiophene analogues table, read-out: MIC E. coli Plank): 110.5 µM (≈ 32 µg/mL)
SMILES: O=C(Nc1ncc([N+](=O)[O-])s1)c1sccc1Cl [VPC16a1009]

- MIC [1, 6]: 3.7 µM (≈ 0.992 µg/mL)
- MIC [2, 7]: 14.9 µM (≈ 4 µg/mL)
- MIC [3, 8]: 119.3 µM (≈ 32 µg/mL)
- MIC [4, 9]: 119.3 µM (≈ 32 µg/mL)
- MIC [5, 10]: 119.3 µM (≈ 32 µg/mL)
SMILES: O=C(Nc1ncc([N+](=O)[O-])s1)c1ccncc1F [VPC16a1053]

- MIC [1, 11]: 3.8 µM (≈ 1.25 µg/mL)
- MIC [2, 12]: 24.3 µM (≈ 8 µg/mL)
- MIC [3, 13]: 12.1 µM (≈ 3.98 µg/mL)
- MIC [4, 14]: 12.1 µM (≈ 3.98 µg/mL)
- MIC [5, 15]: 97.2 µM (≈ 32 µg/mL)
SMILES: Cc1ccccc1-c1ccc(C(=O)Nc2ncc([N+](=O)[O-])s2)o1 [VPC16a1103]

- MIC [1, 6]: 1.2 µM (≈ 0.363 µg/mL)
- MIC [2, 7]: 39.7 µM (≈ 12 µg/mL)
- MIC [3, 8]: 105.9 µM (≈ 32 µg/mL)
- MIC [4, 9]: 105.9 µM (≈ 32 µg/mL)
- MIC [5, 10]: 105.9 µM (≈ 32 µg/mL)
SMILES: Cn1c(C(=O)Nc2ncc([N+](=O)[O-])s2)cc2ccccc21 [VPC16b1028]

- MIC [1, 11]: 1.5 µM (≈ 0.5 µg/mL)
- MIC [2, 12]: 24.0 µM (≈ 8 µg/mL)
- MIC [3, 13]: 24.0 µM (≈ 8 µg/mL)
- MIC [4, 14]: 12.0 µM (≈ 4 µg/mL)
- MIC [5, 15]: 96.0 µM (≈ 32 µg/mL)
SMILES: O=C(Nc1ncc([N+](=O)[O-])s1)c1ccc(-c2cccc(F)c2)o1 [VPC16b1115]

- MIC [1, 11]: 1.4 µM (≈ 0.49 µg/mL)
- MIC [2, 12]: 11.4 µM (≈ 3.99 µg/mL)
- MIC [3, 13]: 11.4 µM (≈ 3.99 µg/mL)
- MIC [4, 14]: 5.7 µM (≈ 1.99 µg/mL)
- MIC [5, 15]: 91.5 µM (≈ 32 µg/mL)
SMILES: O=C(Nc1ncc([N+](=O)[O-])s1)c1ccc(-c2ccccc2Cl)o1 [VPC16b1118]

- MIC [1, 11]: 1.1 µM (≈ 0.385 µg/mL)
- MIC [2, 12]: 22.9 µM (≈ 8.01 µg/mL)
- MIC [3, 13]: 91.5 µM (≈ 32 µg/mL)
- MIC [4, 14]: 91.5 µM (≈ 32 µg/mL)
- MIC [5, 15]: 91.5 µM (≈ 32 µg/mL)
SMILES: O=C(Nc1ncc([N+](=O)[O-])s1)c1ccc(-c2cccc(Cl)c2)o1 [VPC16b1119]
